Measurements reported in patent US20120329862A1, “NOVEL COMPOUND HAVING INHIBITORY EFFECT ON LIPASE” (SUNTORY HOLDINGS LIMITED, priority 2004, published 2012).

Legend:
[1] = target: T1, porcine pancreatic lipase (Sus scrofa, UniProt P00591); assay: Lipase inhibitory activity measurement (4-UMO fluorescent substrate); assay type: biochemical; settings: 4-UMO substrate, pH 8.0, 25° C., 30 minutes
T1 construct: purchased Sigma
T1 sequence (P00591 1-450): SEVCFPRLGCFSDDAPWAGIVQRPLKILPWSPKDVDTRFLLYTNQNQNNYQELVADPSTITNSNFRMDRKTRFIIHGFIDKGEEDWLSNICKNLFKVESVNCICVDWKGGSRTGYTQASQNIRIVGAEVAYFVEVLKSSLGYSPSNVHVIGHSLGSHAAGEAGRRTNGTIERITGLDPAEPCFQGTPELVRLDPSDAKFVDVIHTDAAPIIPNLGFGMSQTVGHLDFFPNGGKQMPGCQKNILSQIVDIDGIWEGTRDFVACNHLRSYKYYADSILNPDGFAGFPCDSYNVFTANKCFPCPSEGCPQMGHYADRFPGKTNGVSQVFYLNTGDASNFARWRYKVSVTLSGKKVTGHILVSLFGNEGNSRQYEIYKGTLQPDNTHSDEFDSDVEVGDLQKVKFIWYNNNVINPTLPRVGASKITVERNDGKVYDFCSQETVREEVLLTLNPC
Method: Lipase activity measurement was carried out by using oleic acid ester of fluorescent 4-methylumbelliferone (4-UMO) as a substrate, and measuring the fluorescence of 4-methylumbelliferone produced by reaction.
In the measurement, 13 mM Tris-HCl containing 150 mM NaCl and 1.36 mM CaCl2 was used as a buffer (pH 8.0). Substrate 4-UMO (Sigma) was prepared as 0.1M solution in DMSO and diluted 1000-fold with the buffer mentioned above. Similarly, lipase (porcine pancreatic lipase (Sigma)) was prepared as 400 U/ml solution in the buffer mentioned above and used in enzymatic measurement.
50 μl of the 4-UMO buffer solution and 25 μl of distilled water (or sample solution) were placed in a 96-well microplate and mixed at 25° C., followed by adding 25 μl of the lipase buffer solution to start enzyme reaction. After 30 minutes of reaction, 100 μl of 0.1M citric acid buffer (pH 4.2) was added to terminate the reaction, and the fluorescence of 4-methylumbelliferone (excitation wavelength: 355 nm, fluorescence wavelength: 460 nm) produced by the reaction was measured with a fluorescence plate reader (Labsystems, Fluoroskan Asent CF).
An inhibitory activity of the sample was determined as IC50, or the amount of the sample which gave […] of inhibition compared to the activity of control (distilled water).

[2] = Solubility of purified compound; assay type: physicochemical; settings: purified white powder
Text: The product obtained from oxidative polymerization reaction may be purified by conventional methods such as chromatography. […] Therefore, this compound is suitable for use in, for example, foods and/or beverages, and pharmaceutical drugs as an active lipase inhibitory ingredient for suppressing absorption of dietary lipids, thereby suppressing the rise of blood triglyceride or decreasing increased blood triglyceride.

| Molecule | IC50 [1] [nM] | IC50 ([1]; value in brackets) [nM] | solubility [2] | lipase inhibitory activity IC50 [1] [µg/mL] |
| --- | --- | --- | --- | --- |
| O=C(O[C@@H]1Cc2c(O)cc(O)cc2O[C@@H]1C1=CC(=O)C2(O)Oc3c(O)c(O)cc([C@H]4Oc5cc(O)cc(O)c5C[C@H]4OC(=O)c4cc(O)c(O)c(O)c4)c3C12)c1cc(O)c(O)c(O)c1 (some centres unmarked) [OTNG, oolongtheanin-3′-O-gallate] | 67.8 | 68 | soluble in water, methanol and DMSO |  |
| epigallocatechin-3-O-gallate [EGCG, reference compound] |  | 349 |  | 0.16 |
